Measured values published in patent US20010012631A1, “Plant clonal lines and plants having elevated secondary metabolite levels” (University of Massachusetts Medical Center, a Massachusetts …, priority 1997, published 2001).
Where two headings read alike, the source gives them in different places.

Key:
thyme clonal line T-16G = assay: RA content of shoot propagules, thyme clonal line T-16G; type: cell-based; conditions: thyme T-16G, 30 to 45 days, ± SD
Experimental: (§1) Samples of Pseudomonas-treated and untreated control shoots from each line were assayed for rosmarinic acid content and proline content. Rosmarinic acid was extracted from 50 mg of fresh shoot tissue using 2 ml of 50% (v/v) methanol and incubating for 1 hour at 55° C. One ml of the methanol extract was diluted 1:18 and the absorbance of the diluted extract was measured at 333 nm in a Genesys spectrophotometer (Spectronic Instruments, Rochester, N.Y.). The concentration of RA in the extract was calculated using an extinction coefficient of ε333=19,000 τmol^−1cm^−1. Values for the concentration of RA for each treatment/clonal line shown in the Tables and Figures of this application are the average of at least 5 separate extracts. Total rosmarinic acid content was expressed as % g/g fresh weight (FW) of tissue.
(§2) Three clonal thyme lines and five rosemary clonal lines were isolated and maintained in culture as described in U.S. application Ser. No. 08/771,241, filed Dec. 20, 1996 and incorporated herein by reference.
(§3) Individual shoot propagules of each clonal line were transferred to half-strength hormone-free MS media supplemented with A2C and cultured for 30 to 45 days. RA content and morphological abnormalities were determined at the end of the culture period as described in Example 1.

thyme clonal line T-12 = assay: RA content of shoot propagules, thyme clonal line T-12; type: cell-based; conditions: 30 to 45 days, ± SD
Experimental: as §1, §2, §3

rosemary clonal line R-1 [1] = assay: RA content of shoot propagules, rosemary clonal line R-1; type: cell-based; conditions: 30 to 45 days
Experimental: as §1, §2, §3

[2] = test system: phenylalanine ammonia lyase (PAL); type: cell-based, oregano; conditions: A2C 50 μM
Experimental: These enzymes are involved in synthesis of phenolic secondary metabolites (PAL) and in the pentose phosphate pathway (G-6-PDH).
One gm fresh weight of leaves were ground to a powder in liquid nitrogen, and homogenized in 0.1 M Tris-HCl buffer (pH 7.4) containing 1 mM phenylmethyl-sulfonyl fluoride (PMSF), 0.1% polyvinylpyrrolidone (PVP, to remove phenolics and polysaccharides) and 1 mM dithiothreitol (DTT). Extracts were centrifuged at 15,000×g for 20 minutes, and supernatants (5 ml) were partially purified through a PD 10 column (Pharmacia, Inc., NJ). Protein was eluted from the column using 5 ml of 0.1 M Tris-HCl, pH 8.5, which is close to the pH optimum of plant glucose-6-phosphate dehydrogenase (pH 8.0-8.2) and PAL (pH 8.8).
Phenylalanine ammonia-lyase (PAL) activity in the protein extract was assayed based on the conversion of L-phenylalanine (6.67 mM) to trans cinnamic acid. The reaction was carried out at 30° C. in borate buffer (33 mM), pH 8.8 with L-phenylalanine as substrate and the change in absorbance at 290 nm was measured. PAL was expressed as nanomoles of trans-cinnamic acid formed per minute per milligram of protein. Protein was determined by the Bradford dye-binding method using bovine serum albumin as a standard.

oregano clonal line 0-5 = assay: Morphological abnormalities / tolerance of cultured shoots, oregano line 0-5; type: cell-based; conditions: line 0-5, 200 μM A2C
Experimental: (§4) Pseudomonas tolerance of Pseudomonas-treated shoots was determined by visual observation with a stereomicroscope (Olympus-SZ40, Tokyo, Japan) at a magnification of 34X. Cultured shoots were evaluated for morphological abnormalities, including malformation, necrosis, and chlorophyll deficiency. The response of individual tissue propagules to Pseudomonas contact was similar within each line, i.e., there was little or no variation among tissue propagules within each line.
Shoot tissue from oregano lines 0-4 and 0-5 was also cultured in the presence of A2C for 30 days. Samples of treated and control shoots were then assayed for RA content on a fresh weight basis and for morphological abnormalities.
Individual shoot tissue propagules of each clonal line were transferred to half strength hormone-free MS medium supplement with A2C. RA content and morphological abnormalities were determined as described in Example 1.

thyme clonal line M-3 = assay: Morphological abnormalities / tolerance of cultured shoots, thyme line M-3; type: cell-based; conditions: thyme line M-3, 200 μM A2C
Experimental: as §4, §3

rosemary clonal line R-1 [3] = assay: Morphological abnormalities / tolerance of cultured shoots, rosemary line R-1; type: cell-based; conditions: rosemary line R-1, 200 μM A2C
Experimental: as §4, §3

oregano clonal lines = assay: Selection for A2C tolerance: total phenolic content of about 100 oregano clonal lines; type: cell-based; conditions: small fraction of about 100 oregano lines, 200 μM A2C, 30 days
Experimental: Total phenolic content can be measured, for example, using Folin-Ciocalteu reagent essentially as described in Chandler and Dodds, Plant Cell Rep. 2:105-108 (1983) and Shetty, K., Ph.D., Thesis, University of Idaho (1989). The tissue is disrupted in 95% ethanol and centrifuged to remove particulate matter. An aliquot of the ethanol supernatant is mixed with an equal volume of Folin-Ciocalteu reagent, and incubated at 25° C. A 5% sodium carbonate can be added to stabilize color development. Absorbance of the solution is measured at 725 nm is a spectrophotometer. A standard curve is developed using various concentrations of gallic acid in 95% ethanol. Absorbance values are converted to mg total phenolics/g fresh weight (FW) tissue from the standard curve.
About 100 oregano clonal lines are initiated as described in Example 1. Lines are maintained on MS medium containing BAP as described in Example 1. At the end of a subculture cycle, 50 shoot propagules of each clonal line are transferred to half-strength hormone-free MS medium containing 200 μM A2C. Propagules are then cultured for 30 days as described in Example 1, and assayed for RA content as described in Example 1. Total phenolic content is measured as described in U.S. application Ser. No. 08/771,241, filed Dec. 20, 1996, incorporated herein by reference.

[4] = test system: regenerated plants of oregano clone 0-1 and five tolerant clones; assay: Field treatment: RA content of leaf tissue of regenerated oregano plants; type: in vivo; conditions: field plants sprayed with solution of A2C about 50 μm, Nonidet P40, EMC about 0.5% w/v; leaf tissue after 7 days; fresh weight and dry weight basis
Experimental: About 100 regenerated plants of oregano clone 0-1, and the five tolerant clones of Example 7 are removed from a greenhouse, and planted outdoors in a field during the spring, and summer growing season. Plantings are carried out using a randomized block design. Plants are fertilized weekly, but are not irrigated. About 7 days before flower emergence, half of the plants of each line are sprayed with an aqueous solution comprising A2C, Nonidet P40™, and EMC prepared from strain F. A2C is present at about 50 μm, and EMC is present at about 0.5% w/v. Each plant receives about 1 to 2 ml on the upper surface of the leaves. The remaining control plants are treated by spraying an aqueous solution that contains no A2C and no EMC. Spraying is carried out such that there is little or no carryover to adjacent plants.
After 7 days, leaf tissue from A2C-treated and control plants is harvested, and analyzed for total phenolic content, and RA content as described in Example 7. […] The plant-to-plant variation among A2C-treated plants of each line is about 5% to about 15%.

SMILES: O=C(O)C1CCN1 (stereo not shown) [A2C, azetidine-2-carboxylic acid]
- RA Levels (thyme clonal line T-16G; A2C 100 μM): 3.1 ± 0.4 mg/g FW
- RA Levels (thyme clonal line T-16G; A2C 200 μM): 3.7 ± 0.4 mg/g FW
- RA Levels (thyme clonal line T-12; thyme T-12, A2C 100 μM): 4.1 ± 0.5 mg/g FW
- RA Levels (thyme clonal line T-12; thyme T-12, A2C 200 μM): 5.1 ± 0.5 mg/g FW
- RA Levels (rosemary clonal line R-1 [1]; rosemary R-1, A2C 100 μM, ± SD): 4.9 ± 0.5 mg/g FW
- RA Levels (rosemary clonal line R-1 [1]; rosemary R-1, A2C 200 μM): inhibited
- PAL specific activity ([2]; 10 days of culture treatment): 2.83 nanomoles cinnamate/min/mg protein
- PAL specific activity ([2]; 25 days of culture treatment): 2.64 nanomoles cinnamate/min/mg protein
- survival of line in culture (oregano clonal line 0-5): killed
- survival of line in culture (thyme clonal line M-3): killed
- survival of line in culture (rosemary clonal line R-1 [3]): killed
- increase in total phenolic content on a fresh weight basis vs tissue cultured in the absence of A2C (oregano clonal lines): at least 2 fold
- RA vs control tissue [4]: at least 2 fold
